Series [1] has as its target T1, Electrophorus electricus AChE (Electrophorus electricus, UniProt O42275).
T1 construct: purchased Sigma Type V-S
Nature of the series: AChE selectivity (Ellman, acetylthiocholine). In kind it is biochemical. The note with it: tested to solubility limit; read-out: Ki Ee AChE. The method, then: Initially, the KM for AChE with the substrate acetylthiocholine was determined by monitoring thiocholine production with 5,5′-dithiobis(2-nitrobenzoic acid) (DTNB) at 412 nm. Acetylthiocholine was prepared in assay buffer (100 mM NaH2PO4 pH 7.4) to 10 mM and serially diluted 1-in-2 to achieve concentrations from 10 mM to 0.08 mM while AChE was prepared in 20 mM NaH2PO4 pH 7.0 supplemented with 4 mg/ml BSA to 0.4 nM. […] The reaction was initiated by the addition of 20 μl AChE (40 pM final concentration). Product formation was monitored for six minutes at room temperature and the initial rates of thioester hydrolysis were determined by linear regression using GraphPad Prism. The Michalis constant was determined as before (FIG. 10).
AChE inhibition was determined by assaying the initial rate of acetylthiocholine hydrolysis in the presence of either neat DMSO or the boronic acid compounds in DMSO. […] Reactions were prepared by pipetting 178 μl assay buffer supplemented with acetylthiocholine (to a final concentration of 100 μM) and DTBN (to a final concentration of 300 μM) into wells of a 96-well plate. […] The reaction was initiated by the addition of 20 μl enzyme (final concentration 40 pM). Product formation was monitored for six minutes at room temperature and the initial rates of thioester hydrolysis were determined by linear regression. IC50 and Ki values were determined as described previously (FIG. 9).
(In Ellman's method for cholinesterases, released thiocholine reacts with DTNB.)

The next series concerns HB-2 cells. Nature of the series: Cellular toxicity, Cell Titer Glo. It counts as cell-based, human. The protocol: (§1) A seven-point, two-fold dose response series, with a 100 uM as the upper limit and a DMSO-only control point was generated using an Echo 550 liquid handler (Labcyte Inc.) in 384-well plates. Subsequently, the human breast cell lines MDA-MB-231 (tumorigenic) and HB2 (non-tumorigenic) were seeded (1000 cells/well) using a multi-drop Combi (Thermo Fisher Scientific) on top of the compounds. Plates were then incubated at 37° C. and 5% CO2 for 48 hours upon which cell viability was assessed by adding CellTiter-Glo® (Promega) to the reaction. The luminescence signal was measured on a Pherastar FS multi-mode plate reader (BMG Labtech).
(In general: ATP-based viability assays read luminescence as a measure of living cells.)

For the next series, the system named is MDA-MB-231 cells. As to the kind of experiment: Cellular toxicity, Cell Titer Glo. It counts as cell-based, human. As to conditions: Homo sapiens, MDA-MB-231; 48 h incubation, Cell Titer Glo; read-out: Viability IC50 MDA-MB-231. The method, then:
as §1

Series [2] relates to Myzus persicae (Green peach aphid). As to the kind of experiment: CPE combined with boronic acid derivatives on small broad bean leaves. It counts as in vivo. The protocol:
[…] The treatment was performed with an agricultural nozzle (300 L per hectare) […]. A non-treated control condition were also evaluated in parallel. Statistical analysis of the data was then performed. When the leaves were totally dry, 3 leaves were sampled and infested with 3 wingless adults of M. persicae per leaf fragment.
• T+1 (DAT 1)—One day later the number of adults remaining on the leaves was counted. • T+3 (DAT 3)—3 days after treatment the aphid population was estimated; • T+7 (DAT 7)—7 days after treatment the development of aphid population was estimated.
3 bean leaves fragments per microbox*4 microbox per condition (1 condition is 1 formulation at 1 dose)*9 adult aphids per microbox*4 insecticides (3 chlorpyrifos derivates+clorpyrifos alone)*4 rates+2 controls (1 reference insecticide formulation at one dose and non-treated)*3 assessments timings (DAT+1, DAT+3 and DAT+7).

The test system of a further series is Colo205. As to the kind of experiment: Cell toxicity panel, viability (luminescence). As to conditions: Homo sapiens, COLO 205; Readout: Luminescence; read-out: IC50 Viability Cells, Cell line: Colo205. It counts as cell-based, human. The method, then: (§2) To further establish the safety and cell toxicity of compounds according to this invention, their IC50 in killing a broad panel of human cell lines (including both cancerous and non-cancerous) cell lines was determined, and their cell toxicity was tested.

In a further series the test system is H23. Nature of the series: Cell toxicity panel, viability (luminescence). In kind it is cell-based, human. The note with it: Homo sapiens, NCI-H23; Readout: Luminescence; read-out: IC50 Viability Cells, Cell line: H23. The protocol:
as §2

In another series the test system is HCT116. As to the kind of experiment: Cell toxicity panel, viability (luminescence). It counts as cell-based, human. As to conditions: Homo sapiens, HCT-116; Readout: Luminescence; read-out: IC50 Viability Cells, Cell line: HCT116. The method, then:
as §2

In a further series the test system is HT29. Nature of the series: Cell toxicity panel, viability (luminescence). In kind it is cell-based, human. The note with it: Homo sapiens, HT-29; Readout: Luminescence; read-out: IC50 Viability Cells, Cell line: HT29. The method, then: as §2
For the next series, the system named is Hela. Nature of the series: Cell toxicity panel, viability (luminescence). In kind it is cell-based, human. As to conditions: Homo sapiens, HeLa; Readout: Luminescence; read-out: IC50 Viability Cells, Cell line: Hela. The method, then:
as §2

The next series has as its system PC3. As to the kind of experiment: Cell toxicity panel, viability (luminescence). In kind it is cell-based, human. As to conditions: Homo sapiens, PC-3; Readout: Luminescence; read-out: IC50 Viability Cells, Cell line: PC3. The protocol: as §2
The next series relates to 293T. As to the kind of experiment: Cell toxicity panel, viability (luminescence). The note with it: Homo sapiens, HEK-293T; Readout: Luminescence; read-out: IC50 Viability Cells, Cell line: 293T. In kind it is cell-based. The method, then:
as §2

In series [3] the test system is HB-2 and MDA-MB-231 human cell lines. Nature of the series: Cell toxicity, two human cell lines HB-2 and MDA-MB-231. As to conditions: 48 h, up to 100 μM. It counts as cell-based. The method, then: FIG. 13 depicts that boronic acids show little cell toxicity. Compounds 1-5 as well as 3.9 and 3.10 were incubated for 48 h with two different human cell lines HB-2 and MDA-MB-231 at 7 concentrations up to 100 μM. Cell viability was measured after 48 h using Cell Titer Glo assay.
as §1

T1 sequence (O42275 24-633): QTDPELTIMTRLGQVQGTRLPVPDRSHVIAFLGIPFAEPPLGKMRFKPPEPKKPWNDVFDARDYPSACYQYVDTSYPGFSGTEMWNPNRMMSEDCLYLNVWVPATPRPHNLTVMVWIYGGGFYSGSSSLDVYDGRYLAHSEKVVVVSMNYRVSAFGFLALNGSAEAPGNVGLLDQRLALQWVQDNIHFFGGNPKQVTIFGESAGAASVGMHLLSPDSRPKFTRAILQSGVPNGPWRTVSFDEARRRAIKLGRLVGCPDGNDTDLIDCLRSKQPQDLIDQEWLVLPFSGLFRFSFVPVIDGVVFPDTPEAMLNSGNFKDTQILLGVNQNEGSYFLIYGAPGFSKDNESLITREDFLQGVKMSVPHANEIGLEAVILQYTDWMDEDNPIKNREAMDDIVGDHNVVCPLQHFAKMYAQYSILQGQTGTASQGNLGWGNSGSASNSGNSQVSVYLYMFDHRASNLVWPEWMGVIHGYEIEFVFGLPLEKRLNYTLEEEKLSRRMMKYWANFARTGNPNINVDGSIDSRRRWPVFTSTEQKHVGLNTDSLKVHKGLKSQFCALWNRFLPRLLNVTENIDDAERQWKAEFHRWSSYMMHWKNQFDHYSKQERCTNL

For `OB(O)c1ccc(OCc2ccccc2F)c(Cl)c1` [Compound 5, 3-Chloro-4(2′-fluorobenzyloxy) phenylboronic acid], the Ki (commonly the dissociation constant of the complex between target and ligand, obtained from inhibition or displacement) in series [1] is above 100 µM. In addition, the “toxicity to HB-2 cells (in words)” value in the series on HB-2 cells (48 h, up to 100 μM) is on record as “low toxicity”. Besides, the IC50 (commonly the concentration at which inhibition is half-maximal) in the series on HB-2 cells (Homo sapiens, 48 h incubation, Cell Titer Glo, read-out: Viability IC50 HB-2) is 77.8 µM; with MDA-MB-231 cells, above 100 µM; in the series on Colo205, 79.4 µM; with H23, 92.7 µM; with HCT116, 88.5 µM; in the series on HT29 it was 62.4 µM. Further, the half-maximal inhibitory concentration (IC50) turned out to be 4.8 µM in the series with Hela, 83.7 µM in the series on PC3 and 90.3 µM with 293T. Moreover, the “toxicity of the boronic acid derivative alone (in words)” value in series [2] (ANOVAs followed by Newman-Keuls tests, threshold 5%) is “No significant toxicity”. In addition, the “insecticidal efficacy of CPE on addition of the compound (in words)” value in series [2] (CPE at 2.8 g a.i./ha and 5.6 g a.i./ha) is on record as “increased”. Moreover, the “cellular toxicity” value in [3] was “low toxicity against HB-2”.

For the origin of these results see patent US20190327974A1, “SYNERGISTS FOR IMPROVED PESTICIDES” (priority 2017, published 2019).
